Data reported in US20210228685A1, “IMPROVED WEIGHT LOSS THERAPY” (BIOREG LLC, priority 2018, published 2021).

Assays:
ATGL = target: T1, ATGL (Mus musculus, UniProt Q8BJ56); experiment: Atglistatin inhibition of rLIF- or isoproterenol-induced adipocyte lipolysis; assay type: cell-based; details: 1 ng/ml rLIF, increasing concentrations of Atglistatin
T1 construct: endogenous in cells; host or cells: differentiated SVF adipocytes
T1 sequence (Q8BJ56 1-486): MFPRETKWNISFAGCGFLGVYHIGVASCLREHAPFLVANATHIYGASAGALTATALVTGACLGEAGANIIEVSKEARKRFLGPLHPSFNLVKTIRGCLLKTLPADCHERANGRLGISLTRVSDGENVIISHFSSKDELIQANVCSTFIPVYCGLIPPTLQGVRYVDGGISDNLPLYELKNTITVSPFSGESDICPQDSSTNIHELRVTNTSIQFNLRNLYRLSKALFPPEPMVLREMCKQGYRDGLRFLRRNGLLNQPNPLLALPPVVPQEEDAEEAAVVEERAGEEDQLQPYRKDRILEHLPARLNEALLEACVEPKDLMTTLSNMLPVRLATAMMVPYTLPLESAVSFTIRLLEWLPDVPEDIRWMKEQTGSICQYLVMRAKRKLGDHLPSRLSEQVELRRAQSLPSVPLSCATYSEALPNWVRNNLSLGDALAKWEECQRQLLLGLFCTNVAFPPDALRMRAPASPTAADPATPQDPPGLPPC
Description: Using the tissue culture adipocyte lipolysis assay, we tested both purified recombinant versions of LIF for their ability to stimulate lipolysis. FIG. 1B-D show adipocyte lipolysis and signaling in wild-type and mutant rLIF-treated adipocytes. Differentiated adipocytes in a 12-well format were treated in a final volume of 1.5 ml of medium supplemented with either the indicated concentration of rLIF or rLIF K159A (FIG. 1B-C); or 30 nM Isoprotererenol or 1 ng/ml rLIF in the absence or presence of the indicated concentration of Atglistatin (FIG. 1D). After incubation for 20 h at 37° C., medium was collected and glycerol concentration was measured using the adipocyte lipolysis assay (FIGS. 1B and D) or adipocyte cells were harvested and subjected to IB analysis (FIG. 1C) ([…]) with the indicated antibody. Each data point (FIG. 1B) represents the mean±SEM of the relative change in medium glycerol concentration compared to conditions containing rLIF without Atglistatin (red, 26 μM) or isoproterenol without Atglistatin (black, 83 μM). As shown in (FIG. 1B), in vitro adipocyte lipolysis activity with WT rLIF was increased over background by ˜5-fold compared with mutant rLIF K159A.
In adipocytes, triglycerides are sequentially hydrolyzed by ATGL, HSL, and monoacylglycerol lipase (MGL). […]

[1] = test system: differentiated SVF adipocytes; experiment: adipocyte lipolysis assay (glycerol released into the medium); assay type: cell-based; details: 12-well format, 20 h at 37° C., without Atglistatin; 1 ng/ml rLIF or 30 nM isoproterenol
Description: Conditioned medium from the C26c20 and MC-38 cells was subsequently placed on differentiated adipocytes, and the amount of glycerol released into the medium was quantified. Glycerol release into the medium is a marker for triglyceride lipolysis in adipocytes (27).
SVF preadipocytes were differentiated into adipocytes as follows: On day −3, SVF preadipocytes were set up in 1 ml medium B at a density of 1×10^6 cells/well of 12-well plates or 3.3×10^5 cells/well of 48-well plates. […] After 2 minutes, the amount of absorbance per well was measured using a Tecan microplate reader (absorbance 540 nm). The amount of glycerol concentration released into the medium per condition over background was calculated using the measured absorbance relative to the absorbance of the standardized curve.
To identify the proteins that mediated lipolysis in C26c20 conditioned medium, we carried out a biochemical purification using the lipolysis assay described above using SVF preadipocytes differentiated into adipocytes set up in 12-well plates or 48-well plates. […] After 2 minutes, the amount of absorbance per well was measured using a Tecan microplate reader (absorbance 540 nm). The amount of glycerol concentration released into the medium per condition over background was calculated using the measured absorbance relative to the absorbance of the standardized curve. […]

inhibition of rLIF-induced lipolysis (ATGL)	SMILES	medium glycerol concentration [1] [µM]
inhibited	CN(C)C(=O)Nc1cccc(-c2ccc(N(C)C)cc2)c1 [Atglistatin]	
	CC(C)NCC(O)c1ccc(O)c(O)c1 (centres unmarked) [isoproterenol]	83
